Literature values as cited in PMC8398847, “Isavuconazole: Thermodynamic Evaluation of Processes Sublimation, Dissolution and Partition in Pharmaceutically Relevant Media” (Molecules, 2021).
Where “and” joins values, the source holds several entries; their conditions need not be identical. Identical values can stand only once.

details: 298.15 K; IVZ cluster; ref Table S1 [1]-[16]; cited from earlier work

Compound | sublimation Gibbs energy (Table S1) [kcal/mol] | sublimation enthalpy (Table S1) [kcal/mol]
CC(C)(O)c1ccccc1 [1-methyl-1-phenylethanol] | 5.26 | 19.7
N#Cc1ccc(Br)cc1 [4-Bromobenzonitrile] | 6.81 | 19.3
Oc1ccc(F)cc1 [4-Fluorophenol] | 4.76 | 17.7
CC(C(=O)O)c1ccc(-c2ccccc2)c(F)c1 (centres unmarked) [Flurbiprofen] | 12.7 | 26.34
O=C(O)c1ccccc1F [2-fluorobenzoic acid] | 8.48 | 22.6
O=C(O)c1cccc(F)c1 [3-fluorobenzoic acid] | 8.22 | 22.4
CC(O)(c1ccccc1)c1ccccc1 [1,1-diphenylethanol] | 9.35 | 25.1
Fc1ccc(-c2ccc(F)cc2)cc1 [4,4'-difluorobiphenyl] | 7.22 | 21.8
N#Cc1ccc2ccccc2c1 [2-Naphthalenecarbonitrile] | 8.08 | 22
N#Cc1cccc(F)c1 [3-Fluorobenzonitrile] | 3.78 | 15.6
CC(=O)c1ccc(F)cc1 [p-fluoroacetophenone] | 4.21 | 17.1
N#Cc1ccc(I)cc1 [4-Iodobenzonitrile] | 7.84 | 21
CC(O)(CS(=O)(=O)c1ccc(F)cc1)C(=O)Nc1ccc(C#N)c(C(F)(F)F)c1 (centres unmarked) [Bicalutamide] | 15.2 | 29.8
O=C(O)c1ccc(F)cc1 [4-fluorobenzoic acid] | 8.8 | 22.3
Fc1ccccc1-c1ccccc1F [2,2'-difluorobiphenyl] | 7.72 | 22.7
N#Cc1ccc(F)cc1 [4-Fluorobenzonitrile] | 4.21 | 16.2

same assay, conditions: 298.15 K; bicalutamide cluster; cited from earlier work

Compound | sublimation Gibbs energy (kJ∙mol-1, Table S2) | sublimation enthalpy (first kJ∙mol-1 column, Table S2)
CC(=O)NCC(=O)Nc1ccccc1 [acetylglycine anilide] | 59.9 kJ/mol | 125.4 kJ/mol
CC(C)(O)c1ccccc1 [1-methyl-1-phenylethanol] | 22 kJ/mol | 82.3 kJ/mol
O=[N+]([O-])c1cccc(F)c1 [3-Fluoronitrobenzene] | 17.1 kJ/mol | 72.3 kJ/mol
CC(O)Cc1nsc(Nc2ccc(F)cc2)n1 (centres unmarked) [1-[5-(4-Fluoro-phenylamino)-[1,2,4]thiadiazol-3-yl]-propan-2-ol] | 59.1 kJ/mol | 124.8 kJ/mol
Oc1ccc(F)cc1 [4-Fluorophenol] | 19.9 kJ/mol | 74.1 kJ/mol
CC(=O)Nc1ccccc1O [2'-Hydroxyacetanilide] | 52.8 kJ/mol | 121.8 kJ/mol
O=C(O)c1ccccc1Nc1ccccc1 [N-phenyl-Anthranilic acid] | 58.9 kJ/mol | 126 kJ/mol
CC(=O)Nc1ccc(C)cc1 [N-(4-methylphenyl)acetamide] | 44.5 kJ/mol | 99 kJ/mol
CC12CC3CC(C)(C1)CC(NS(=O)(=O)c1ccc(C(F)(F)F)cc1)(C3)C2 [N-(3,5-Dimethyl-adamantan-1-yl)-4-trifluoromethyl-benzenesulfonamide] | 49.6 kJ/mol | 107.7 kJ/mol
CC(=O)Nc1ccc(Cl)cc1 [4'-Chloroacetanilide] | 50.1 kJ/mol | 113.8 kJ/mol
c1ccc(CNc2ccccc2)cc1 [N-phenyl benzylamine] | 36.9 kJ/mol | 104.4 kJ/mol
CNc1ccc(C(=O)O)cc1 [4-(methylamino)benzoic acid] | 55.3 kJ/mol | 123.9 kJ/mol
CC(=O)Nc1cccc(O)c1 [3-Acetamidophenol] | 56.4 kJ/mol | 111 kJ/mol
O=C(O)c1ccccc1F [2-fluorobenzoic acid] | 35.5 kJ/mol | 94.4 kJ/mol
NC(=O)c1ccccc1F [2-Fluorobenzamide] | 35.8 kJ/mol | 95.4 kJ/mol
NC(=O)c1ccccc1N [o-Aminobenzamide] | 46.1 kJ/mol | 106.8 kJ/mol
CC(N)=O [Acetamide] | 40.5 kJ/mol | 99.8 kJ/mol
NC(=O)c1ccc(F)cc1 [4-Fluorobenzamide] | 43.2 kJ/mol | 102.8 kJ/mol
CC(=O)Nc1ccc(O)cc1 [Paracetamol] | 60 kJ/mol | 117.9 kJ/mol
Cc1cccc(Nc2ccccc2C(=O)O)c1C [Mefenamic Acid] | 59.2 kJ/mol | 136.3 kJ/mol
O=C(O)c1cccnc1Nc1cccc(C(F)(F)F)c1 [Niflumic acid] | 61.3 kJ/mol | 130.2 kJ/mol

Compound | sublimation Gibbs energy (kJ∙mol-1, Table S2) | sublimation enthalpy (first kJ∙mol-1 column, Table S2)
O=C(O)c1ccccc1Nc1cccc(C(F)(F)F)c1 [Flufenamic acid] | 54.3 kJ/mol | 121.2 kJ/mol
CC(=O)Nc1ccc(C=O)cc1 [p-acetaminobenzaldehyde] | 44.1 kJ/mol | 99.1 kJ/mol
CC(=O)Nc1ccccc1C [N-(2-methylphenyl)acetamide] | 40.9 kJ/mol | 97.1 kJ/mol
O=C(O)c1cc(-c2ccc(F)cc2F)ccc1O [Diflunisal (Form A), Diflunisal] | 57.6 kJ/mol | 120.1 kJ/mol
O=C(O)c1cccc(F)c1 [3-fluorobenzoic acid] | 34.4 kJ/mol | 93.6 kJ/mol
CC(O)(c1ccccc1)c1ccccc1 [1,1-diphenylethanol] | 39.1 kJ/mol | 105 kJ/mol
O=[N+]([O-])c1ccc(F)cc1 [4-Fluoronitrobenzene] | 18.9 kJ/mol | 70.9 kJ/mol
Cc1ccccc1NC(=O)c1c(C)[n+]([O-])c2ccccc2[n+]1[O-] [3-methyl-N-(2-methylphenyl)-2-quinoxalinecarboxamide-1,4-dioxide] | 71.9 kJ/mol | 154.8 kJ/mol
NC(=O)c1cccc(F)c1 [3-Fluorobenzamide] | 42.5 kJ/mol | 104.1 kJ/mol
N#Cc1ccc(C(=O)O)cc1 [4-Cyanobenzoic acid] | 50.7 kJ/mol | 112.8 kJ/mol
Fc1ccc(-c2ccc(F)cc2)cc1 [4,4'-difluorobiphenyl] | 30.2 kJ/mol | 91.2 kJ/mol
CC(=O)Nc1ccccc1C(=O)O [2-(acetylamino)-Benzoic acid] | 54.4 kJ/mol | 115.5 kJ/mol
NC(=O)c1cccc(N)c1 [m-Aminobenzamide] | 57.5 kJ/mol and 57.8 kJ/mol | 125.3 kJ/mol and 128.6 kJ/mol
2-phenylcarbamoyl-3-methylquinoxaline-N-oxide | 69.2 kJ/mol | 145.1 kJ/mol
CC(O)(CS(=O)(=O)c1ccc(F)cc1)C(=O)Nc1ccc(C#N)c(C(F)(F)F)c1 (centres unmarked) [Bicalutamide] | 63.7 kJ/mol | 124.7 kJ/mol
Fc1ccc(-n2cccc2)cc1 [1-(4-fluorophenyl)pyrrole] | 25.4 kJ/mol | 78.9 kJ/mol
O=C(O)c1ccc(F)cc1 [4-fluorobenzoic acid] | 36.8 kJ/mol | 93.1 kJ/mol
NC(=O)c1ccc(N)cc1 [p-Aminobenzamide] | 61.7 kJ/mol | 131.2 kJ/mol
CC(=O)Nc1ccc(Br)cc1 [4'-Bromoacetanilide] | 51.2 kJ/mol | 113.4 kJ/mol
Fc1ccccc1-c1ccccc1F [2,2'-difluorobiphenyl] | 32.3 kJ/mol | 95 kJ/mol
CC(=O)Nc1cccc2ccccc12 [N-acetyl-1-naphthylamine] | 47.9 kJ/mol | 94 kJ/mol and 94.1 kJ/mol
